Laboratory results published in patent US7279497B2, “Benzopyran derivatives substituted with secondary amines including imidazole, their preparation and pharmaceutical compositions containing them” (Korea Research Institute of Chemical Technology, priority 2002, dated 2007).

Tests used:
[1] = system: Chick chorioallantoic membrane (CAM); assay: CAM (chorioallantoic membrane) assay; format: in vivo
Experimental: Chick chorioallantoic membrane (CAM) assays were performed to measure the inhibitory effects on angiogenesis in vivo of the compounds of the formula 1.
Fertilized chick eggs were incubated under constant humidified (90%) egg breeder at 37° C. On the third day of incubation, about 2 mL of egg albumin was aspirated by an 18-gauge hypodermic needle through the small hole drilled at the narrow end of the eggs, to detach the developing CAM from the shell. And the shell covering the air sac was punched out and removed by forcep, and the shell membrane on the floor of the air sac was peeled away. After more incubation of two more days, sample-loaded thermanox coverslips were air-dried, and applied to the CAM surface to test the angiogenic inhibition by the test compounds. Three days later, 1 to 2 mL of 10% fat emulsion (Intralipose) was injected into the chorioallantoic and observed avascular zone under a dissecting microscope. The negative control was implanted only thermanox coverslip, while the positive control was treated with retinoic acid (1 μg/egg). […] Independent experiment was repeated three times and at least more than 20 eggs in each experiment were used.

SPF SD rats = settings: rat, in vivo, po;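 further: Six-week-old animals, two per group, followed across an observation period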
[2] = system: blood vessel formation in Matrigel plugs; assay: In vivo mouse matrigel plug assay (hemoglobin content of plug); set-up: species or system C57BL/6 mice
Experimental: Antiangiogenic activities in vivo of the compounds of the formula 1 were determined by mouse matrigel plug assay.
The mixture of Matrigel, heparin (30 units), and bFGF (25 ng) were injected subcutaneously into C57BL/6 mice. The test compounds were injected subcutaneously at 2.2 mg/mL with matrigel, or administrated orally at 2 mg/day (twice a day, each 1 mg) during 4 days (total 8 mg/mouse). After 4-7 days, the skin of the mouse was pulled back, and matrigel plug was excised. The hemoglobin contents inside the Matrigel plugs were measured using the Drabkin method and Drabkin reagent (kit 525, Sigma) for the quantitation of blood vessel formation.

ischemic hearts = assay: Cardioprotective activity in ischemic heart model of anesthetized rats; settings: Rat in vivo, 0.3 mg/kg i.v.
Experimental: In order to determine whether the compounds of formula 1 are protective for ischemic hearts, experiments determining the anti-ischemic effects of the compounds on rats were conducted as follows. Male rats (350-450 g, obtained from the Experimental Animal Team of the Korea Research Institute of Chemical Technology) were anesthetized by the intraperitoneal injection of pentobarbital at a dose of 75 mg/kg. After trachetomy, the rats were rendered to respire artificially at a rate of 60/min with a stroke volume of 10 ml/kg. Cannulars were inserted into the fermoral vein and the fermoral artery and used for drug administration and blood pressure measurement, respectively. In the ischemic myocardial injury models, the body temperature has an important influence on the results. To avoid the change in the body temperature, a body temperature measuring probe was inserted into the rectum of each rat and the body temperature was constantly kept at 37° C. with the aid of a homeothermic blanket control unit. Afterwards, during testing, a continuous measurement was made of the mean arterial blood pressures and heart rates from the rats. For the measurement of the blood pressure, a pressure transducer (Statham P23XL, Grass Ins., MA, U.S.A.) was used. The heart rate was measured by a tachometer (ECG/RATE Coupler, Hugo Sachs Electronic, German) identified as Biotachometer. In addition, all of the changes occurring were continuously recorded through the Gould 2000 chart recorder ([…] Linearcorder W R 3310, Hugo Sachs Electronic). The left coronary artery was occluded according to the Selye H. method as follows. The rats underwent a left thoracotomy operation for partial opening of the chest and the right-side chest was pressurized by the middle finger of the left hand to push the heart out. Immediately after the left anterior descending coronary artery hereinafter referred to as (LAD) was carefully stitched using a suture needle with 5-0 silk ligature, the heart was then repositioned in the thoracic cavity while both ends of the ligature were situated outside. The opposite ligature ends were passed through a PE tube (PE100, 2.5 cm) and allowed to stand loose for 20 min for stabilization. Via the cannula inserted into the femoral vein, vehicles or drugs were administered into the rats which were rendered to stand for 30 min in order to sufficiently elicit the efficacies of the drugs. […] From the images input into the computer, the area of the normal blood stream tissue region which appeared blue in a computer monitor and the area which appeared colorless were measured. The percentage of the colorless area to the total area of each slice was calculated and multiplied by the weight of each slice to determine the area at risk (AAR) of each slice. […]

[3] = system: HUVECs (Human umbilical vein endothelial cells); assay: Inhibitory effects on HUVEC tube formation; format: cell-based;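 further: from minus no inhibition up to plus-plus-plus complete inhibition versus vehicle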
In short: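 HUVECs within passage 5 were plated on bFGF-reduced polymerized Matrigel and incubated with or without compound. Tube formation assessed as changes in cell morphology by phase-contrast microscopy and photography.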

COC(OC)[C@@]1(C)Oc2ccc([N+](=O)[O-])cc2[C@@H](N(Cc2ncc[nH]2)c2ccc(Cl)cc2)[C@@H]1O [Example 1, (2S,3S,4R)-3,4-dihydro-2-dimethoxymethyl-3-hydroxy-2-methyl-6-nitro-4-[N-(4-chlorophenyl)-N-(1H-imidazol-2-ylmethyl)amino]-2H-1-benzopyran]
% Inhibition (positive eggs) ([1]; 0.5 μM/egg): 62%
% Inhibition (positive eggs) ([1]; 1.5 μg/egg): 84%
clinical symptoms, body weight and mortality (SPF SD rats): no significant changes
% Inhibition (hemoglobin quantity) ([2]; S. C, 2.2 mg/mL with matrigel): 79%
% Inhibition (hemoglobin quantity) ([2]; oral, 2 mg/day during 4 days): 94%
AAR/LV (%) (ischemic hearts): 33.4%
IZ/AAR (%) (ischemic hearts): 41.2%
Tube formation ([3]; 10 μM): +
Tube formation ([3]; 50 μM): +
Tube formation ([3]; 100 μM): ++
